The source of these data is patent US6770738B1, “Higher order structure and binding of peptide nucleic acids” (ISIS Pharmaceuticals, Inc., priority 1992, dated 2004).

In test [1] the test system is T3 RNA polymerase transcription of pA10KS (d(A10) target). The experiment in a line: Inhibition of RNA polymerase T3 transcription elongation by PNA. The class given is biochemical. The settings on record: PNA 1 or 10 uM bound to the template strand. The method, then: The complex, between PNA T10-LysNH2 (SEQ ID NO:2) (1 or 10 um) and pAIOKS (pBluescriptKS^+ in which the d(A10) target is cloned into the BamHl site, analogous to pTlO) (100 ng) cleaved with restriction enzyme PyuII, XbaI, or BamHl, was formed by incubation in 14 μL 10 m Tris-HCl, 1 mM EDTA, (pH 7.4) buffer for 60 min. at 37° C. Subsequently 4 μL 5× concentrated polymerase buffer (0.2 M Tris-HCl, pH 8.0, 125 mM NaCl, 40 mM MgCl2, 10 mM spermidine) was added together with 15 U T3 RNA polymerase and ATP (10 mM), CTP (10 mM), GTP (10 mM), UTP (1 mM) and ^32P-UTP (0.1 μCi), and the incubation was continued for 10 min. Following ethanol precipitation, the RNA was analyzed by electrophoresis in sequencing gels and the radiolabeled bands were visualized by autoradiography using intensifying screens. The results are shown in FIG. 18: Lane 1: pTIOKS was cut with PyuH and no PNA was present. Lane 2: pTIOKS was cut with BamHl, and no PNA was present. Lane 3: pTIOKS was cut with XbaI, no PNA. Lane 4: as in lane 1 but in the presence of PNA (1 uM). Lane 5: as lane 3+PNA (1 uM). Lane 6: as lane 1+PNA (10 uM). Lane 7: as lane 3+PNA (10 uM).
The complex between the desired PNA and the desired DNA (100 ng) cleaved with the desired restriction enzyme was formed by incubation in 14 μL 10 mM Tris-HCl, 1 mM EDTA, (pH 7.4) buffer for 60 min at 37° C. Subsequently 4 μL 5× concentrated polymerase buffer (0.2 M Tris-HCl, pH 8.0, 125 mM NaCl, 40 mM MgCl2 10 mM spermidine) was added together with 15 U of RNA polymerase and ATP (10 μM), CTP (10 mM), UTP (1 mM) and ^32P-UTP (0.1 μCi). The incubation was continued for 10 min. Following ethanol precipitation, the RNA was analyzed by electrophoresis in polyacrylamide sequencing gels, and radialabeled RNA bands were visualized by autoradiography (using Agfa Curix RPI X-ray films and intensifying screens). Quantitation was performed by densitometric scanning using a Molecular Dynamics laser scanner and the ImageQuant™ software.
In this example transcription arrest with PNAs shorter than 10 mers was examined. […]

Test [2] has as its system Taq DNA polymerase primer extension on pAIOKS. The experiment in a line: Inhibition of Taq DNA polymerase primer extension by PNA. The class given is biochemical. The settings on record: pre-formed complex, 1 ug PNA. The method, then:
A mixture of 100 500 ng Pvull cleaved plasmid pAIOKS, 0.1 ug M13 reverse primer and 1 ug of PNA T10-LysNH2(SEQ ID NO:2) in 10 ul buffer ([…], pH 8.3, 50 mM KCl, 1.5 mM MgCl2, 0.1 mg/ml gelatine) was incubated for 5 min at 90° C. and then for 60 min at 37° C. Subsequently, 1 U of Taq polymerase, 1 ul dCTP (100 uM), dGTP (100 uM), dTTP (100 uM) and ^32 P-dATP (1 uCi) were added and the incubation continued for 5 min at 20° C. Following the addition of 2 ul dATP, dCTP, dGTP, dTTP (1 mM each), the sample was incubated for 15 min at 60° C. The DNA was precipitated with ethanol and the samples treated as described for Example 18. The results are shown in FIG. 19: Lane 1: pTIOKS was cut with PvuII and no PNA was present. Lane 2: same as lane one with PNA present. Lane 3: no PNA and PTIOKS was cut with BamHl.

Test [3] concerns A98/T98 insert of pA98 plasmid. The experiment in a line: Electron microscopy of PNA-DNA complex. Format: binding. The method, then: A pA98 plasmid containing an A98/T98 (SEQ ID NO:42) insert in the PstI site of the polylinker of a pUC 19 plasmid was used. 0.1 μg of the pA98 plasmid linearized by the Cfr1OI I restriction enzyme was incubated with 0.15 μg of PNA H-T10-LysNH2 (SEQ ID NO:2) at 37 °C. for 3 hours in 10 μL of the TE buffer (10 mM of Tris-HCl, 1 mM of Na3EDTA, pH 8.0). The complex was diluted with buffer containing 10 mM of Tris-HCl, 10 mM of NaCl, pH 7.5 to the final DNA concentration of 0.2-0.5 μg/mL and absorbed to the surface of glow discharged in tripropylamine carbon grid for 2 minutes as described in Duochet, J., Ultrastruct. Res., 1971 35, 147-167. The grid was stained in 0.1-0.5 % water solution of uranyl acetate for 10-15 sec and dried. The sample was shadowed with Pt/C (95/5) and studied in a Philips 400 electron microscope at accelerating voltage of 40 kV. The length of the DNA molecules were measured and a histogram was plotted as described by A. V. Kurakin in Micron Microscopica Acta, 22,213-221 (1991). The length of unwound region was measured by its thicker strand, for which the number of base pairs per unit length was assumed to be the same as for the DNA duplex. For analysis by use of a histogram, the molecules were oriented in such a manner that the left boundary of the loop was closer to the end of the molecule.

H-T10LysNH2 [PNA H-T10-LysNH2]: the “transcription elongation by RNA polymerase T3” value in test [1] is “effectively blocked”. Further, the “primer extension product of Taq DNA polymerase” value in test [2] is listed as “a product corresponding in length to blockage at the PNA was produced”. Further, in test [3], the “strand displacement loop at full occupancy of the target” value is 90-100 bases. Further, the “average size of the loop” value in test [3] (standard error 17 bp) came to 114 bp.
